Test results taken from patent publication US20250108048A1, “STING AGONIST COMPOUNDS AND CONJUGATES” (SUTRO BIOPHARMA, INC., priority 2023, published 2025).

How the values were obtained:
[1] = biological target: hSTING AQ (Homo sapiens, UniProt Q86WV6, G230A/H232R/R293Q); experiment: Surface plasmon resonance, hSTING AQ; type: binding; details: read-out: hSTING AQ SPR (Kd)
[2] = biological target: hSTING H232 (Homo sapiens, UniProt Q86WV6); experiment: THP1-Dual KI-hSTING-H232 reporter assay (IRF pathway, secreted Lucia luciferase); type: cell-based; parameters: host or cells: THP1-Dual KI-hSTING-H232 (from THP1-Dual KO-STING); details: THP1-Dual KI-hSTING-H232 cells, 24 hours; read-out: Reporter assay EC50 (nM) THP-1-H232
Chain of hSTING H232 (Q86WV6 whole entry): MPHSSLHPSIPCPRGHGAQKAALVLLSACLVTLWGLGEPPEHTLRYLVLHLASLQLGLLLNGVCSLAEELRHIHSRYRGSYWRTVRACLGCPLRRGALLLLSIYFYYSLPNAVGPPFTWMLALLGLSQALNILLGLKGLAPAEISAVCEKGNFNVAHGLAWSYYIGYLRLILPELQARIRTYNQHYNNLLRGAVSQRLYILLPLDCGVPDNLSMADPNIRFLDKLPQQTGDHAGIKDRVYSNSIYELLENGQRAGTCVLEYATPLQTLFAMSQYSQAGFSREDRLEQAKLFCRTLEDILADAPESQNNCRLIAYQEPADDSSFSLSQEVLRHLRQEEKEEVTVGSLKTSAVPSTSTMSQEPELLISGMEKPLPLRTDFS

[3] = biological target: T1, hSTING-R232 (Homo sapiens, UniProt Q86WV6, H232R); experiment: THP1-Dual KI-hSTING-R232 reporter assay (IRF pathway, secreted Lucia luciferase); type: cell-based; details: THP1-Dual KI-hSTING-R232 cells, 24 hours; read-out: Reporter assay EC50 (nM) THP-1-R232
T1 construct: host or cells: THP1-Dual KI-hSTING-R232 (from THP1-Dual KO-STING)
T1 sequence (Q86WV6 whole entry H232R): as the sequence (Q86WV6 whole entry) above, with H232R counted along it

[4] = biological target: T2, mSTING (Mus musculus, UniProt Q3TBT3); experiment: THP1-Dual KI-mSTING reporter assay; type: cell-based; parameters: host or cells: THP1-Dual KI-mSTING (from THP1-Dual KO-STING); details: THP1-Dual KI-mSTING cells, 24 hours; read-out: Reporter assay EC50 (nM) THP-1 mSTING
T2 sequence (Q3TBT3 1-378): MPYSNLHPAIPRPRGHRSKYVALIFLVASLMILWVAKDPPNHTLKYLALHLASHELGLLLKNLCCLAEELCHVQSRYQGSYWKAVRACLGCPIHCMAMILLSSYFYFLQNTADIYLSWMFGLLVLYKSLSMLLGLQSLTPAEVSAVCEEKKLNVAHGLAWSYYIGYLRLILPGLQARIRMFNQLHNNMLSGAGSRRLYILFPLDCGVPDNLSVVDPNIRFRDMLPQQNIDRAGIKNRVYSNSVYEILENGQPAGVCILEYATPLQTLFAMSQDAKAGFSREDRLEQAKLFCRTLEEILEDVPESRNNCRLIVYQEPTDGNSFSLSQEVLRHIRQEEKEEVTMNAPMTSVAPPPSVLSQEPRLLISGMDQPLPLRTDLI
Experimental: The activities of the STING agonists to activate human or mouse STING pathways were evaluated in THP-1-Dual™, THP1-Dual™ KI-hSTING-R232, THP1-Dual™ KI-hSTING-H232 Cells and THP1-Dual™ KI-mSTING Cells. THP-1-Dual™ cells contains hSTING-HAQ haplotype and can be used to evaluate the activity of STING agonists by monitoring the activation of NF-κB pathway and the […] (IFN regulatory factor) pathways. THP1-Dual™ KO-STING cells were generated from THP1-Dual™ cells by stable knockout of the endogenous HAQ STING gene. THP1-Dual™ KI-hSTING-R232 cells, THP1-Dual™ KI-hSTING-H232 cells and THP1-Dual™ KI-mSTING cells were generated by transfecting THP1-Dual™ KO-STING cells with hSTING-R232 or hSTING-H232 or mSTING. Stimulating these reporter cells with a STING agonist activates TRF pathway and induces the production of a secreted Lucia luciferase in the cell culture medium, which can be determined using QUANTI-Luc™ reagent.
THP-1-Dual™, THP1-Dual™ KI-hSTING-R232, THP1-Dual™ KI-hSTING-H232 and THP1-Dual™ KI-mSTING reporter cells were purchased from Invivogen and maintained in manufacture recommended culture medium with required supplemental antibiotics. On the day of assay, the cells were harvested with Accutase and counted by the Vi-CELL Cell Viability Analyzers. Cells were resuspended in HEK blue detection medium and a total of 10000 cells were seeded in each well of a 384-well flat bottom plate. Serial dilutions of STING agonists free drugs (1:3 serial dilution starting from 5 uM) was added into treatment wells. After incubation at 37° C. in a CO2 incubator for 24 hours, 20 μl of cell culture medium per well was transferred into a 384-well white (opaque) plate. 50 μl of QUANTI-Luc™ assay solution was then added to each well and the plate was immediately transferred to an ENVISION® plate reader to measure luminescence (Perkin-Elmer). Relative luminescence readings were converted to fold change of signal using untreated cells as controls. Data was fitted with non-linear regression analysis, using log (agonist) vs. response, variable slope, 4-parameter fit equation using GraphPad Prism. Data was expressed as fold change in signal vs. dose of STING agonist in nM with error bars indicating the Standard Deviation (SD) of the quadruplicates. There result was reported in Table 2 as EC50 (the midpoint of the curve, or concentration at which […] of the maximum effect was observed).

Chain of hSTING AQ (Q86WV6 whole entry G230A/H232R/R293Q): as the sequence (Q86WV6 whole entry) above, with G230A, H232R, R293Q counted along it

Kd [1]: ≤ 20 nM
EC50 [2]: > 150 nM
EC50 [3]: 50 to 150 nM
EC50 [4]: > 150 nM
SMILES: CCn1nc(C)cc1C(=O)Nc1nc2cc(C(N)=O)cc(OC)c2n1C/C=C/Cn1c(NC(=O)c2cc(C)nn2CC)nc2cc(C(N)=O)cc(OCCCN3CCC(c4nnc5n4CCNC5)CC3)c21 [Compound 4, 1-[(E)-4-[5-carbamoyl-2-[(2-ethyl-5-methyl-pyrazole-3-carbonyl)amino]-7-[3-[4-(5,6,7,8-tetrahydro-[1,2,4]triazolo[4,3-a]pyrazin-3-yl)-1-piperidyl]propoxy]benzimidazol-1-yl]but-2-enyl]-2-[(2-ethyl-5-methyl-pyrazole-3-carbonyl)amino]-7-methoxy-benzimidazole-5-carboxamide; 2,2,2-trifluoroacetic acid]
